In EP0194905A1, “5',5'''-P1,P4-diadenosine-tetraphosphate alpha-,beta-phosphorylase and its use in the preparation of isotope-labelled nucleotides” (priority 1985, dated 1986):

Key:
Ap4A-phosphorylase [1] = target: T1, Ap4A-phosphorylase (Saccharomyces cerevisiae, UniProt P16550); experiment: Ap4A-phosphorylase activity: initial rates of phosphorolysis of Ap4A and related substrates (PEI-cellulose TLC, radioactivity); format: biochemical; conditions: for conversion de l'Ap4A when phosphate is replaced: 10 mM in place of phosphate, 500 µM MnCl2 or 5 mM MgCl2
T1 construct: l'Ap4A phosphorylase est constituée d'une seule chaîne; endogenous in cells; host or cells: Saccharomyces cerevisiae yeast cells; enzyme purified by ammonium sulfate, DEAE-Sephacel, Sephadex G-100, hydroxyapatite and Sephadex G-75 superfine
T1 sequence (P16550 1-321): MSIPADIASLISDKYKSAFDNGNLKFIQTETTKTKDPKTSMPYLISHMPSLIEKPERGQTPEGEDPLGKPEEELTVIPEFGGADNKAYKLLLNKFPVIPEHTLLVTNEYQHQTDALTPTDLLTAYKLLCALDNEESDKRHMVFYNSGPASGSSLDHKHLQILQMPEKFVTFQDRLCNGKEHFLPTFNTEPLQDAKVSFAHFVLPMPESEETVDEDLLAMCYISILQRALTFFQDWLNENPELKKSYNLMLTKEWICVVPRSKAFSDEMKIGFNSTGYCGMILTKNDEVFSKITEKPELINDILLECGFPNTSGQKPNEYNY
Method: (§1) L'activité de l'Ap4A-phosphorylase a été déterminée à 37°C. Le mélange d'incubation standard contenait, dans un volume final de 25 ou 50 µl, du tampon 50 mM acide 4-(2-hydroxyéthyl)-1-pipérazine éthane sulfonique (Hepes)/KOH (pH 8,2), 1 mM 2-mercaptoéthanol, 2 % de glycérol, 500 µM MnCl2, […], 500 uM de [^3H]Ap4A (1 pmol = 20 cpm), de la sérum-albumine bovine (0,4 mg/ml) et une solution d'enzyme diluée de façon appropriée en présence de 2 mg/ml de sérum-albumine bovine. Dans certains cas, l'activité a été suivie à l'aide de [^32P]K2HPO4.
Pour mesurer les vitesses initiales, de phosphorolyse, on a déposé des prélèvements de 2 µl sur des couches minces de polyéthylèneimine-cellulose contenant un indicateur fluorescent (foumies par MERCK) après 2, 4, 8 et 16 min de réaction.
Des standards d'Ap4A et d'ADP ont été ajoutés et les chromatogrammes ont été développés tout d'abord pendant 15 min dans le méthanol à 75 %, puis pendant 1 h dans du chlorure de lithium 0,85 M. Les valeurs Rf des composés standards étaient respectivement de 0,15 (Ap4A) et 0,25 (ADP), la valeur Rf du phosphate était de 0,55. Les taches d'ADP visualisées sous lumière ultraviolette ont été découpées et immergées dans 5 ml de mélange de scintillation et la radioactivité a été mesurée. Au cours des différentes étapes de purification, l'enzyme a été testée en l'absence de radioactivité; les fractions actives ont été afors directement identifiées sur les chromatogrammes sous lumière ultraviolette.
La dégradation enzymatique de l'Ap4A par l'enzyme selon l'invention, c'est-à-dire l'Ap4A-phosphorylase, a été caractérisée par identification des produits de ladite réaction de dégradation par co-migration avec des composés standards authentiques sur des couches minces de polyéthylèneimine-cellulose. Cette identification a été confirmée sur une colonne de Lichrosorb RP-18 (MERCK) en utilisant un système HPLC (chromatographie liquide haute performance) avec une élution isocratique par du phosphate de potassium 25 mM, pH 5,3 selon la méthode de BREVET et al. décrite dans J.Biol.Chem. (1982), 257. 14613-14615. La colonne de chromatographie a été utilisée avec une pompe modèle 112, un injecteur modèle 210 et un détecteur d'absorbance modèle 160 (matériel BECKMAN), en opérant à 254 nm avec une sensibilité de 0,002 unité d'absorbance pleine échelle.

Ap4A-phosphorylase [2] = target: T1, Ap4A-phosphorylase; experiment: Effect of divalent metal ions on initial rates of Ap4A phosphorolysis; format: biochemical
Method: Les vitesses initiales de la phosphorolyse de l'Ap4A ont été mesurées dans un milieu contenant 50 mM Hepes/KOH (pH 8,2); 1 mM de 2-mercaptoéthanol; 2 % de glycérol et 0,4 mg/ml de sérum-albumine bovine, 5 mM K2HPO4; 500 uM [^3H] Ap4A et différentes concentrations de chlorures de manganèse, de magnésium, de calcium, de cobalt ou de cadmium.
Les résultats obtenus sont indiqués sur le graphe de la figure 2 annexée sur lequel on a porté en ordonnées les vitesses initiales de phosphorolyse de l'Ap4A exprimées en pourcentages de la vitesse observée avec 500 uM MnCl2-(36 s-') et en abscisses la concentration en ions métalliques exprimée en mM.
Les différentes courbes correspondent respectivement aux chlorures ci-après : courbe A (O - O) = MnCl2 [formula] [formula] [formula] [formula]

[3] = substrate: Nc1ncnc2c1ncn2[C@@H]1O[C@H](COP(=O)(O)OS(=O)(=O)O)[C@@H](O)[C@H]1O; experiment: purified protein, by the assay type; conditions: other: NDP-P* exchange at optimum pH, 37°C
[4] = substrate: Nc1ncnc2c1ncn2[C@@H]1O[C@H](COP(=O)(O)OP(=O)(O)OP(=O)(O)OP(=O)(O)OC[C@H]2O[C@@H](n3cnc4c(N)ncnc43)[C@H](O)[C@@H]2O)[C@@H](O)[C@H]1O; experiment: Ap4A-phosphorylase activity: initial rates of phosphorolysis of Ap4A and related substrates (PEI-cellulose TLC, radioactivity); format: biochemical, Saccharomyces cerevisiae; conditions: other: 37°C, 50 mM Hepes/KOH pH 8,2, 500 µM MnCl2, 10 mM K2HPO4, 1 mM 2-mercaptoéthanol, 2 % glycérol, pH 8.2
Method: as §1
Pour mesurer les vitesses initiales, de phosphorolyse, on a déposé des prélèvements de 2 µl sur des couches minces de polyéthylèneimine-cellulose contenant un indicateur fluorescent (foumies par MERCK) après 2, 4, 8 et 16 min de réaction. […]
La dégradation enzymatique de l'Ap4A par l'enzyme selon l'invention, c'est-à-dire l'Ap4A-phosphorylase, a été caractérisée par identification des produits de ladite réaction de dégradation par co-migration avec des composés standards authentiques sur des couches minces de polyéthylèneimine-cellulose. […] La colonne de chromatographie a été utilisée avec une pompe modèle 112, un injecteur modèle 210 et un détecteur d'absorbance modèle 160 (matériel BECKMAN), en opérant à 254 nm avec une sensibilité de 0,002 unité d'absorbance pleine échelle.

[5] = substrate: Nc1ccn([C@@H]2O[C@H](COP(=O)(O)OP(=O)(O)O)[C@@H](O)[C@H]2O)c(=O)n1; experiment: NDP-P* exchange reaction catalysed by Ap4A-phosphorylase; format: biochemical, Saccharomyces cerevisiae; conditions: other: NDP-P* exchange at optimum pH, 37°C
Description: (§2) On a estimé les constantes de Michaelis Km et les vitesses d'échange pour différents NDP au pH optimum, lequel varie en fonction des substrats. Les résultats obtenus sont rassemblés dans le tableau Il ci-après ainsi que les conditions expérimentales.

[6] = substrate: Nc1nc2c(ncn2[C@@H]2O[C@H](COP(=O)(O)OP(=O)(O)O)[C@@H](O)[C@H]2O)c(=O)[nH]1; experiment: as above; format: biochemical, Saccharomyces cerevisiae; conditions: other: NDP-P* exchange at optimum pH, 37°C
Description: as §2

[7] = substrate: Nc1ncnc2c1ncn2[C@@H]1O[C@H](COP(=O)(O)OP(=O)(O)O)[C@@H](O)[C@H]1O; experiment: as above; format: biochemical, Saccharomyces cerevisiae; conditions: other: NDP-P* exchange at optimum pH, 37°C
Description: as §2

[8] = substrate: O=c1ccn([C@@H]2O[C@H](COP(=O)(O)OP(=O)(O)O)[C@@H](O)[C@H]2O)c(=O)[nH]1; experiment: as above; format: biochemical, Saccharomyces cerevisiae; conditions: other: NDP-P* exchange at optimum pH, 37°C
Description: as §2

Nc1ncnc2c1ncn2[C@@H]1O[C@H](COP(=O)(O)OP(=O)(O)OP(=O)(O)OP(=O)(O)O)[C@@H](O)[C@H]1O [p4A, Adénosine tétraphosphate]
substrat de l'Ap4A-phosphorylase (behaviour as substrate) (Ap4A-phosphorylase [1]; compounds structurally related to Ap4A, in presence of phosphate): ne soient pas des substrats

MnCl2
vitesse initiale de phosphorolyse de l'Ap4A (Ap4A-phosphorylase [2]; 500 uM MnCl2, 5 mM K2HPO4, 500 uM [3H]Ap4A, pH 8,2 (100 % reference of figure 2)): 36 s-'
activity of metal ions in supporting phosphorolyse de l'Ap4A (Ap4A-phosphorylase [2]; chlorides of Mn, Mg, Ca, Co, Cd at various concentrations (figure 2)): les plus actifs

phosphate
Km (Ap4A-phosphorylase [1]; phosphorolysis of Ap4A, read-out: Km du phosphate): 1000 µM

pyrophosphate
conversion de l'Ap4A when phosphate is replaced (Ap4A-phosphorylase [1]): aucune conversion

sulfate
conversion de l'Ap4A when phosphate is replaced (Ap4A-phosphorylase [1]): aucune conversion

B1: Ap4A-phosphorylase (Saccharomyces cerevisiae S288C) (protein)
chain: MSIPADIASLISDKYKSAFDNGNLKFIQTETTKTKDPKTSMPYLISHMPSLIEKPERGQTPEGEDPLGKPEEELTVIPEFGGADNKAYKLLLNKFPVIPEHTLLVTNEYQHQTDALTPTDLLTAYKLLCALDNEESDKRHMVFYNSGPASGSSLDHKHLQILQMPEKFVTFQDRLCNGKEHFLPTFNTEPLQDAKVSFAHFVLPMPESEETVDEDLLAMCYISILQRALTFFQDWLNENPELKKSYNLMLTKEWICVVPRSKAFSDEMKIGFNSTGYCGMILTKNDEVFSKITEKPELINDILLECGFPNTSGQKPNEYNY
notes: l'Ap4A phosphorylase est constituée d'une seule chaîne; endogenous in cells; host or cells: Saccharomyces cerevisiae yeast cells; enzyme purified by ammonium sulfate, DEAE-Sephacel, Sephadex G-100, hydroxyapatite and Sephadex G-75 superfine
Km [3]: 500 µM
Km [4]: 60 µM
Km [5]: 2800 µM
Km [6]: 700 µM
Km [7]: 740 µM
Km [8]: 3700 µM
